The source made the active and inactive calls. No cut-off for these calls is given here.
What was measured:
[1] = Clearance in Sprague-Dawley rat at 1 mg/kg, iv; format: ADME, organism-based; conditions: in vivo
Mus musculus [2] = experiment: Anti-inflammatory activity against MSA-2 induced C57BL/6 mouse inflammation model assessed as inhibition of MSA-2 induced Isg56 RNA expression in kidney at 10 mg/kg, ip pre-treated for 1 hr followed by stimulated with MSA-2 for 4 hrs by real-time PCR analysis; format: functional, organism-based; conditions: time 5.0 hrs
[3] = Metabolic stability in rat liver microsomes assessed as liver intrinsic clearance; format: ADME, Microsome
[4] = biological target: Stimulator of interferon genes protein (Homo sapiens) (UniProt Q86WV6); experiment: Inhibition of STING downstream signalling in human THP1-Dual cells assessed as inhibition of HT-DNA induced ISG15 mRNA expression at 0.3 to 3 uM pre-treated for 1 hr followed by stimulated with HT-DNA measured after 4 hrs by real-time PCR analysis; format: cell-based; conditions: dose 0.3-3 µM, time 5.0 hrs
Chain of Stimulator of interferon genes protein (Homo sapiens) (Q86WV6 whole entry): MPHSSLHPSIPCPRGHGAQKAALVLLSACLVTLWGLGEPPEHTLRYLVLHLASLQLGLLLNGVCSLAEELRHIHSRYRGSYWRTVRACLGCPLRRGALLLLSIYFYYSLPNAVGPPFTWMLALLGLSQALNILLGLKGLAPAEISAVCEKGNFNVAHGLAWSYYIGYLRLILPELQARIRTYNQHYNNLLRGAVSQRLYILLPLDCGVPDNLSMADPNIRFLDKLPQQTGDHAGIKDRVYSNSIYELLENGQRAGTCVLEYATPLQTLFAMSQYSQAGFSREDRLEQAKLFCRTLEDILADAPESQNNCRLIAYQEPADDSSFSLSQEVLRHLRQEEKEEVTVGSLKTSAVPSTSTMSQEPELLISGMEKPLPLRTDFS

[5] = Metabolic stability in human liver microsomes assessed as liver intrinsic clearance; format: ADME, Microsome
[6] = biological target: T1, Stimulator of interferon genes protein (Mus musculus) (UniProt Q3TBT3); experiment: Inhibition of STING downstream signalling in mouse BMDM cells assessed as inhibition of MSA-2 induced IRF3 phosphorylation pre-treated for 1 hr followed by stimulated with MSA-2 measured after 4 hrs by Western blot analysis; format: cell-based; conditions: dose 0.3-3 µM, time 5.0 hrs
T1 sequence (whole entry): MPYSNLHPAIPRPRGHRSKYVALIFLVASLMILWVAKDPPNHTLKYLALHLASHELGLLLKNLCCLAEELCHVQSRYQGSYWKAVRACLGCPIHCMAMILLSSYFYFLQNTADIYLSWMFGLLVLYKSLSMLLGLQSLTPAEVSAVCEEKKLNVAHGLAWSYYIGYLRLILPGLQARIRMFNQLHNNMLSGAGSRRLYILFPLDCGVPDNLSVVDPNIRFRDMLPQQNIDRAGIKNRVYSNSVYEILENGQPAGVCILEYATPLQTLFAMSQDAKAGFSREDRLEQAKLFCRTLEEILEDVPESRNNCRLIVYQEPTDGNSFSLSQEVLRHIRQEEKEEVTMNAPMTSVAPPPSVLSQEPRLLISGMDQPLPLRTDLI

[7] = biological target: Stimulator of interferon genes protein (Homo sapiens) (UniProt Q86WV6); experiment: Inhibition of human wild type STING (R232) expressed in human 293-Dual hSTING-R232 cells assessed as reduction in cGAMP-induced TNF-alpha expression; format: cell-based
[8] = Metabolic stability in human liver microsomes assessed as half life; format: ADME, Microsome
Mus musculus [9] = experiment: Anti-inflammatory activity in TREX1 D18N mouse model assessed as reduction in Isg56 mRNA expression in heart at 10 mg/kg, ip measured after 2 weeks; format: functional, organism-based
[10] = Half life in Sprague-Dawley rat at 1 mg/kg, iv; format: ADME, organism-based; conditions: in vivo
THP1-Dual = experiment: Cytotoxicity against human THP1-Dual cells assessed as cell viability measured after 24 hrs by CCK8 assay; format: functional, cell-based
Mus musculus [11] = experiment: Anti-inflammatory activity in TREX1 D18N mouse model assessed as reduction in Ccl5 mRNA expression in heart at 10 mg/kg, ip measured after 2 weeks; format: functional, organism-based
[12] = biological target: T1, Stimulator of interferon genes protein (Mus musculus); experiment: Inhibition of STING downstream signalling in mouse BMDM cells assessed as inhibition of MSA-2 induced TBK1 phosphorylation pre-treated for 1 hr followed by stimulated with MSA-2 measured after 4 hrs by Western blot analysis; format: cell-based; conditions: dose 0.3-3 µM, time 5.0 hrs
Mus musculus [13] = experiment: Anti-inflammatory activity in TREX1 D18N mouse model assessed as reduction in Isg15 mRNA expression in heart at 10 mg/kg, ip measured after 2 weeks; format: functional, organism-based
[14] = Oral bioavailability in Sprague-Dawley rat at 3 mg/kg; format: ADME, organism-based; conditions: in vivo
[15] = biological target: T1, Stimulator of interferon genes protein (Mus musculus); experiment: Inhibition of STING downstream signalling in mouse RAW264.7 cells assessed as inhibition of […] induced IP-10 secretion level at 0.3 to 3 uM pre-treated for 1 hr followed by stimulated with […] measured after 24 hrs by ELISA; format: cell-based; conditions: dose 0.3-3 µM, time 25.0 hrs
[16] = Half life in Sprague-Dawley rat at 3 mg/kg, po; format: ADME, organism-based; conditions: in vivo
Mus musculus [17] = experiment: Anti-inflammatory activity against MSA-2 induced C57BL/6 mouse inflammation model assessed as inhibition of MSA-2 induced IL-6 level in plasma at 10 mg/kg, ip pre-treated for 1 hr followed by stimulated with MSA-2 for 4 hrs by ELISA; format: functional, organism-based; conditions: time 5.0 hrs
[18] = biological target: T1, Stimulator of interferon genes protein (Mus musculus); experiment: Inhibition of STING downstream signalling in mouse RAW264.7 cells assessed as inhibition of […] induced IL-6 secretion level at 0.3 to 3 uM pre-treated for 1 hr followed by stimulated with […] measured after 24 hrs by ELISA; format: cell-based; conditions: dose 0.3-3 µM, time 25.0 hrs
[19] = biological target: Stimulator of interferon genes protein (Homo sapiens) (UniProt Q86WV6); experiment: Inhibition of STING downstream signalling in human THP1-Dual cells assessed as inhibition of HT-DNA induced ISG56 mRNA expression at 0.3 to 3 uM pre-treated for 1 hr followed by stimulated with HT-DNA measured after 4 hrs by real-time PCR analysis; format: cell-based; conditions: dose 0.3-3 µM, time 5.0 hrs
Mus musculus [20] = experiment: Anti-inflammatory activity against Cisplatin induced C57BL/6 STING-KO mouse kidney inflammation model assessed as prevention of Cisplatin induced glomerular injury at 5 mg/kg, ip treated for 3 days; format: functional, organism-based; conditions: time 3.0 day
Mus musculus [21] = experiment: Anti-inflammatory activity in TREX1 D18N mouse model assessed as reduction in Ifn-beta mRNA expression in heart at 10 mg/kg, ip measured after 2 weeks; format: functional, organism-based
[22] = biological target: Stimulator of interferon genes protein (Homo sapiens) (UniProt Q86WV6); experiment: Inhibition of STING downstream signalling in human THP1-Dual cells assessed as inhibition of MSA-2 induced IP-10 secretion at 0.3 to 3 uM pre-treated for 1 hr followed by stimulated with MSA-2 measured after 24 hrs by ELISA; format: cell-based; conditions: dose 0.3-3 µM, time 25.0 hrs
[23] = biological target: Stimulator of interferon genes protein (Homo sapiens) (UniProt Q86WV6); experiment: Inhibition of STING downstream signalling in human THP1-Dual cells assessed as inhibition of cGAMP induced IFN-beta secretion at 0.3 to 3 uM pre-treated for 1 hr followed by stimulated with cGAMP measured after 24 hrs by ELISA; format: cell-based; conditions: dose 0.3-3 µM, time 25.0 hrs
Mus musculus [24] = experiment: Toxicity in TREX1 D18N mouse model assessed as change in body weight at 10 mg/kg, ip measured after 2 weeks; format: organism-based; conditions: in vivo, 336 h
[25] = biological target: T1, Stimulator of interferon genes protein (Mus musculus); experiment: Inhibition of STING downstream signalling in mouse RAW264.7 cells assessed as inhibition of DMAAA induced Isg56 mRNA level pre-treated for 1 hr followed by stimulated with DMAAA measured after 4 hrs by real-time PCR analysis; format: cell-based; conditions: dose 0.3-3 µM, time 5.0 hrs
[26] = biological target: Stimulator of interferon genes protein (Homo sapiens) (UniProt Q86WV6); experiment: Inhibition of STING downstream signalling in human THP1-Dual cells assessed as inhibition of MSA-2 induced IFN-beta mRNA expression at 0.3 to 3 uM pre-treated for 1 hr followed by stimulated with MSA-2 measured after 4 hrs by real-time PCR analysis; format: cell-based; conditions: dose 0.3-3 µM, time 5.0 hrs
[27] = biological target: Stimulator of interferon genes protein (Homo sapiens) (UniProt Q86WV6); experiment: Inhibition of STING downstream signalling in human THP1-Dual cells assessed as inhibition of MSA-2 induced IP-10 mRNA expression at 0.3 to 3 uM pre-treated for 1 hr followed by stimulated with MSA-2 measured after 4 hrs by real-time PCR analysis; format: cell-based; conditions: dose 0.3-3 µM, time 5.0 hrs
Mus musculus [28] = experiment: Effect on Isg15 expression in Cisplatin induced C57BL/6 STING-KO mouse kidney inflammation model at 5 mg/kg, ip treated for 3 days by real-time PCR analysis; format: functional, organism-based; conditions: time 3.0 day

N#CC/C=C/c1ccc2[nH]cc(NC(=O)Nc3ccc4c(c3)OC(F)(F)O4)c2c1
clearance [1]: 88.1 mL/min/kg | inhibition (Mus musculus [2]): Active | CLH [3]: 64.8 µL/min/mg | inhibition [4]: Active | CLH [5]: 36.9 µL/min/mg | inhibition [6]: Dose-dependent-effect | inhibition [7]: Active | half-life [8]: 33.8 min | Activity (Mus musculus [9]): Active | half-life [10]: 19.8 min | inhibition (THP1-Dual): inactive | Activity (Mus musculus [11]): Active | inhibition [12]: Dose-dependent-effect | Activity (Mus musculus [13]): Active | bioavailability [14]: 12.7% | inhibition [15]: Active | half-life [16]: 196 min | inhibition (Mus musculus [17]): Active | inhibition [18]: Active | inhibition [19]: Active | Activity (Mus musculus [20]): inactive | Activity (Mus musculus [21]): Active | inhibition [22]: Active | inhibition [23]: Active | Activity (Mus musculus [24]): Non-toxic | inhibition [25]: Dose-dependent-effect | inhibition [26]: Active | inhibition [27]: Active | Activity (Mus musculus [28]): inactive
